Test results: PubChem BioAssay (NCI)
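Cells were grown in 96-well plates and exposed to each compound for 48 hours at five concentrations; endpoints were interpolated linearly between bracketing concentrations, or set to the highest concentration if not reached. Abbreviation: GI50, concentration required for 50% inhibition of growth. Definition used: TGI = concentration required for complete inhibition of growth.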

Columns and labels:
Assay in all cases: inhibition of tumour cell growth, NCI panel, 48 h
HOP-92 NSCLC = test system: HOP-92 NSCLC
SR leukemia = test system: SR leukemia
OVCAR-4 ovarian = test system: OVCAR-4 ovarian
U251 CNS = test system: U251 CNS
M14 melanoma = test system: M14 melanoma
OVCAR-3 ovarian = test system: OVCAR-3 ovarian
HCC-2998 colon = test system: HCC-2998 colon
HL-60(TB) leukemia = test system: HL-60(TB) leukemia
SK-MEL-2 melanoma = test system: SK-MEL-2 melanoma
SN12C renal = test system: SN12C renal
CCRF-CEM leukemia = test system: CCRF-CEM leukemia
SF-539 CNS = test system: SF-539 CNS
NCI-H522 lung = test system: NCI-H522 lung
UO-31 renal = test system: UO-31 renal
RPMI-8226 leukemia = test system: RPMI-8226 leukemia
SK-MEL-28 melanoma = test system: SK-MEL-28 melanoma
SNB-75 CNS = test system: SNB-75 CNS
SF-295 CNS = test system: SF-295 CNS
MALME-3M melanoma = test system: MALME-3M melanoma
RXF 393 renal = test system: RXF 393 renal
A498 renal = test system: A498 renal
UACC-257 melanoma = test system: UACC-257 melanoma
NCI-H23 lung = test system: NCI-H23 lung
HOP-62 NSCLC = test system: HOP-62 NSCLC
MCF7 breast = test system: MCF7 breast
OVCAR-8 ovarian = test system: OVCAR-8 ovarian
LOX IMVI melanoma = test system: LOX IMVI melanoma
A549 NSCLC = test system: A549 NSCLC
MDA-MB-468 breast = test system: MDA-MB-468 breast
BT-549 breast = test system: BT-549 breast
SK-OV-3 ovarian = test system: SK-OV-3 ovarian
SK-MEL-5 melanoma = test system: SK-MEL-5 melanoma
SF-268 CNS = test system: SF-268 CNS
TK-10 renal = test system: TK-10 renal
KM12 colon = test system: KM12 colon
HS 578T breast = test system: HS 578T breast
MDA-MB-231 breast = test system: MDA-MB-231 breast
SW-620 colon = test system: SW-620 colon
HCT-116 colon = test system: HCT-116 colon
IGROV1 ovarian = test system: IGROV1 ovarian
HT29 colon = test system: HT29 colon
786-0 renal = test system: 786-0 renal
K-562 leukemia = test system: K-562 leukemia
MDA-MB-435 = test system: MDA-MB-435
UACC-62 melanoma = test system: UACC-62 melanoma
DU-145 prostate = test system: DU-145 prostate
PC-3 prostate = test system: PC-3 prostate
T-47D breast = test system: T-47D breast
SNB-19 CNS = test system: SNB-19 CNS
OVCAR-5 ovarian = test system: OVCAR-5 ovarian
NCI/ADR-RES ovarian = test system: NCI/ADR-RES ovarian
NCI-H226 lung = test system: NCI-H226 lung
MOLT-4 leukemia = test system: MOLT-4 leukemia
CAKI-1 renal = test system: CAKI-1 renal
EKVX NSCLC = test system: EKVX NSCLC
NCI-H460 lung = test system: NCI-H460 lung
ACHN renal = test system: ACHN renal
HCT-15 colon = test system: HCT-15 colon
COLO 205 colon = test system: COLO 205 colon

## CCN1C(=O)N(CC)C2NNC(Sc3c(C(=O)O)c4ccccc4n(CCC(C)C)c3=O)=NC21 (stereo not drawn)
HOP-92 NSCLC
  GI50: 16.5 µM
  TGI: 47.4 µM
SR leukemia
  GI50: 22 µM
  TGI: > 100 µM
OVCAR-4 ovarian
  GI50: 17.9 µM
  TGI: > 100 µM
U251 CNS
  GI50: 4.33 µM
  TGI: 36.9 µM
M14 melanoma
  GI50: 8.47 µM
  TGI: > 100 µM
OVCAR-3 ovarian
  GI50: 5 µM
  TGI: 21.3 µM
HCC-2998 colon
  GI50: 2.41 µM
  TGI: 7.91 µM
HL-60(TB) leukemia
  GI50: 3.12 µM
  TGI: 34.1 µM
SK-MEL-2 melanoma
  GI50: 9.35 µM
  TGI: 31.2 µM
SN12C renal
  GI50: 4.09 µM
  TGI: 18.2 µM
CCRF-CEM leukemia
  GI50: 4.62 µM
  TGI: > 100 µM
SF-539 CNS
  GI50: 2.11 µM
  TGI: 5.63 µM
NCI-H522 lung
  GI50: 2.52 µM
  TGI: 8.42 µM
UO-31 renal
  GI50: 4.07 µM
  TGI: 22.5 µM
RPMI-8226 leukemia
  GI50: 4.61 µM
  TGI: > 100 µM
SK-MEL-28 melanoma
  GI50: 9.69 µM
  TGI: 31.4 µM
SNB-75 CNS
  GI50: 2.24 µM
  TGI: 9.19 µM
SF-295 CNS
  GI50: 3.3 µM
  TGI: 13.2 µM
MALME-3M melanoma
  GI50: 11.2 µM
  TGI: 28.3 µM
RXF 393 renal
  GI50: 2.16 µM
  TGI: 9.31 µM
A498 renal
  GI50: 19.6 µM
  TGI: 54.3 µM
UACC-257 melanoma
  GI50: 19.6 µM
  TGI: 71.5 µM
NCI-H23 lung
  GI50: 4.34 µM
  TGI: 16.6 µM
HOP-62 NSCLC
  GI50: 6.68 µM
  TGI: 43 µM
MCF7 breast
  GI50: 0.878 µM
  TGI: 15.1 µM
OVCAR-8 ovarian
  GI50: 5.54 µM
  TGI: 51.7 µM
LOX IMVI melanoma
  GI50: 5.11 µM
  TGI: 18.5 µM
A549 NSCLC
  GI50: 6.07 µM
  TGI: 24.2 µM
MDA-MB-468 breast
  GI50: 0.386 µM
  TGI: 3.33 µM
BT-549 breast
  GI50: 35.8 µM
  TGI: 91.4 µM
SK-OV-3 ovarian
  GI50: 7.58 µM
  TGI: 69.1 µM
SK-MEL-5 melanoma
  GI50: 4.37 µM
  TGI: 16.4 µM
SF-268 CNS
  GI50: 10.4 µM
  TGI: > 100 µM
TK-10 renal
  GI50: 17.5 µM
  TGI: 63.8 µM
KM12 colon
  GI50: 4.12 µM
  TGI: 53.5 µM
HS 578T breast
  GI50: 3.37 µM
  TGI: 31 µM
MDA-MB-231 breast
  GI50: 3.69 µM
  TGI: 15.7 µM
SW-620 colon
  GI50: 6.5 µM
  TGI: 31 µM
HCT-116 colon
  GI50: 4.12 µM
  TGI: > 100 µM
IGROV1 ovarian
  GI50: 3.06 µM
  TGI: 18.1 µM
HT29 colon
  GI50: 3.33 µM
  TGI: 13.3 µM
786-0 renal
  GI50: 14.5 µM
  TGI: 62.8 µM
K-562 leukemia
  GI50: 3.69 µM
  TGI: > 100 µM
MDA-MB-435
  GI50: 2.13 µM
  TGI: 5.5 µM
UACC-62 melanoma
  GI50: 4.11 µM
  TGI: 19.8 µM
DU-145 prostate
  GI50: 5.64 µM
  TGI: 65.7 µM
PC-3 prostate
  GI50: 6.19 µM
  TGI: > 100 µM
T-47D breast
  GI50: 20.5 µM
  TGI: > 100 µM
SNB-19 CNS
  GI50: 4.56 µM
  TGI: 25.1 µM
OVCAR-5 ovarian
  GI50: 3.06 µM
  TGI: 17.5 µM
NCI/ADR-RES ovarian
  GI50: 2.25 µM
  TGI: 5.8 µM
NCI-H226 lung
  GI50: 3.87 µM
  TGI: 21 µM
MOLT-4 leukemia
  GI50: 4.79 µM
  TGI: > 100 µM
CAKI-1 renal
  GI50: 5.21 µM
  TGI: 19.8 µM
EKVX NSCLC
  GI50: 3.5 µM
  TGI: 17.7 µM
NCI-H460 lung
  GI50: 3.43 µM
  TGI: 13.3 µM
ACHN renal
  GI50: 5.75 µM
  TGI: 19.4 µM
HCT-15 colon
  GI50: 2.75 µM
  TGI: 13.7 µM
COLO 205 colon
  GI50: 3.65 µM
  TGI: 11.6 µM
